System: rhabdomyolysis-induced AKI in glycerol-injected mice
Test: Glycerol-induced rhabdomyolysis AKI mouse model with F7 pretreatment
Assay type: in vivo, C57BL/6 mice
Procedure: After one week of adoption to the housing conditions, the mice were randomly divided into three groups (n = 8): control, glycerol, and glycerol+HDAC6 inhibitor (F7). For the latter two groups, a single intramuscular injection of 50% glycerol dissolved in 0.9% normal saline (10 μl/g) was divided between bilateral back limbs to induce rhabdomyolysis-induced AKI model. The mice in control group received the same dose of saline injection at the place of glycerol. Before glycerol injection, mice in pretreatment group were orally administrated with F7 (dissolved in DEG and diluted with 0.9% saline) at a dose of 40mg/kg/d (200 μl solution for 28g) for 3 days. For control and glycerol groups, mice were treated with the same dose of saline.
All the mice were euthanized via pentobarbital sodium injection (50 mg/kg, i.p.). Terminal blood samples were collected and serum samples were stored at -80°C. Kidney tissues were divided and respectively removed into 10% phosphate buffered formalin for histological staining, and into liquid nitrogen follows by storage at -80°C for further quantitative analysis and immunofluorescence staining.
The serum level of creatinine kinase (CK), blood urea (UREA) and serum creatinine (sCr) were tested using high performance liquid chromatography (HPLC) by Institute of Drug Clinical Trial and the GCP center of West China Hospital of Sichuan University.
Paraffin-embedded kidney tissue samples were cut into 4-um sections and stained with haematoxylin and erosin (H&E) and periodic acid-Schiff (PAS) staining. These sections were viewed using light microscopy at magnifications of ⊆200 and ⊆400 respectively, and semiquantitative estimation of renal tubular damage was performed on a scale from 0 to 4 to grade the percentage of injured/damaged renal tubules: 0 for 0%, 0.5% for <10%, 1 for 10–25%, 2 for 26–50%, 3 for 51–75% and 4 for 76–100%[22]. At least 10 areas were randomly selected in the cortex per slide.
Kidney tissue samples were mounted in O.C.T. compound medium (Tissue-Tek) for cryosectioning (4 μm). Sections were immediately fixed in 10% buffered formalin, washed, dehydrated and stored at -20°C. Before immunofluorescence staining, the tissue sections were rehydrated and blocked with 10% horse medium (diluted with PBS solution) for 1 hour at room temperature and incubated at 4°C overnight with indicated primary antibodies. Then sections were exposed to second antibodies labeled with Cy5 red or FITC green (Jackson ImmunoResearch Inc., West Grove, PA, United States). The nuclei were counterstained with DAPI (1:500, Life Technologies Corporation, OR, United States). The images were captured with AxioCam HRc digital camera (Carl Zeiss).
Kidney tissue or cultured cell samples were sufficiently lysed in the mixture of RIPA buffer (50 mM Tris (pH7.4), 150 mM NaCl, 1% TritonX-100, 1% sodium deoxycholate, 0.1% SDS) containing 4% cocktail proteinase inhibitor (Roche, Switzerland) on ice. After centrifuged at 13,000 rpm for 15 min at 4°C, supernate of the homogenate were collected for protein quantification. Protein equivalent to 50 ug were loaded into 10–12% SDS-PAGE gels for electrophoretic separation, and then transferred to polyvinylidene difluoride (PVDF) membranes (0.2 μm, Bio-Rad Laboratories, Inc.). After protein blotting, membranes were blocks using 5% non-fat dried milk for 1h at room temperature, then probed with primary antibodies at 4°C overnight, and incubated with secondary antibodies for 1h at room temperature. […]

[1] = glycerol+F7 vs glycerol group, F7 40 mg/kg/d oral for 3 days
[2] = western blot, F7 40 mg/kg/d for 3 days

Cc1nc(N(C)c2ccc(Oc3ccc(C(=O)NO)cn3)cc2)c2ccccc2n1 [F7, N-hydroxy-6-(4-(methyl(2-methylquinazolin-4-yl)amino)phenoxy)nicotinamide]
IL-β and TNF-α in serum and kidney lysates (ELISA, F7 40 mg/kg/d for 3 days): decreased
NGAL expression in tubules (immunofluorescence staining) (F7 40 mg/kg/d for 3 days): largely diminished
pathological injuries (tubular damage, H&E and PAS staining) (F7 40 mg/kg/d oral for 3 days pretreatment): effectively alleviated
Serum creatine kinase (CK) (glycerol+F7 group vs control, 24 hours after glycerol injection, F7 40 mg/kg/d oral for 3 days): markedly elevated
serum creatinine (sCr) [1]: remarkably decreased
serum urea (UREA) [1]: remarkably decreased
NGAL mRNA expression and protein expression (real-time PCR and immunoblot, F7 40 mg/kg/d for 3 days): markedly reduced
mRNA level of IL-6 and TNF-α in kidney (real-time PCR, F7 40 mg/kg/d for 3 days): significantly decreased
expression of HDAC6 in the damaged kidney (western blot and immunofluorescence, F7 40 mg/kg/d for 3 days): significantly inhibited
IκBα phosphorylation in kidney [2]: decreased
NF-κB p65 phosphorylation in kidney [2]: effectively down-regulated
acetylation of histone H3 and α-tubulin in kidney [2]: enhanced
p38 phosphorylation in kidney [2]: effectively inhibited
proinflammatory cytokines IL-6 and IL-β protein levels in kidney [2]: remarkably down-regulated
total ERK1/2 expression in kidney [2]: effectively inhibited
ERK1/2 phosphorylation in kidney (western blot, F7 treatment group): no significant ERK1/2 phosphorylation reduction
